Measurements from patent US5744452A, “γ-L-glutamyl containing immunomodulator compounds and methods therewith” (Wei; Edward T., priority 1995, dated 1998).

Experiments:
[1] = tested on: dogs; experiment: Subacute toxicity, repeated intramuscular injection, dogs; assay type: in vivo
Description: (§1) To illustrate this point and in preparation for clinical studies, acute and sub-acute toxicity studies were conducted in animals with Bestim according to conditions of good-laboratory practices. Bestim, prepared as a sterile lyophitized powder in ampoules, was dissolved in sterile 0.9% NaCl solution and injected intramuscularly in all experiments.
Subacute Toxicity Studies: In a second set of experiments, Bestim was administered for longer durations, accordingly:
dogs: 1 mg/kg, 10 mg/kg and 100 mg/kg, administered intramuscularly daily for 1 month and for 3 months.

[2] = tested on: rats; experiment: Acute toxicity, single intramuscular dose, rats; assay type: in vivo; settings: single 500.0 mg/kg intramuscular, 14 days
Description: as §1
(§2) Acute toxicity: Rodents (mice and rats) and dogs were randomized into groups of equal numbers of males and females. Animals were inspected daily for 14 days after a single dose of Bestim (intramuscular):
(§3) Body weight, overall appearance and behavior were evaluated each day and, at the end of two weeks, macroscopic and histopathological examinations of the internal organs (heart, lungs, pleural and peritoneal cavities, muscles, stomach, small and large intestine, liver, spleen, pancreas, kidneys, bladder, thyroid, brain, skin and testes/ovaries) of all animals were conducted.

[3] = tested on: patient with colon cancer; experiment: Case History 1: immunodeficiency after cancer chemotherapy (Patient A); assay type: in vivo, human
Description: Patient A was admitted with the diagnosis of colon cancer. Laboratory confirmed immunodeficiency which appeared as a complication of the main illness. Bestim preparation was applied by 5 daily intramuscular injections of 0.1 mg.

[4] = tested on: patients with prostatitis caused by Chlamydian infection; experiment: Trial in prostatitis caused by Chlamydian infection; assay type: in vivo, human; settings: fourteen treated, 30 control patients
Description: In addition to these studies, a trial was conducted using Bestim for the treatment of prostatitis caused by Chlamydian infection. Fourteen patients were treated with Bestim with 30 control patients.

[5] = tested on: patients with disseminated cancer; experiment: Study in patients with disseminated cancer after anticancer therapy; assay type: in vivo, human; settings: for Adhesion (%) / B-cells / B-cells (%) / Blastransformation, LPS / Blastransformation, PHA / Blastransformation, spontaneous / CD3 / CD3 (%) / CD4 / CD4 (%) / CD4/CD8 / CD8 / CD8 (%) / Cationic proteins / Chemiluminescence, luminol (induced) / Chemiluminescence, luminol (spontaneous) / IgA / IgG / IgM / Myeloperoxidase activity / NBT reduction test / NK activity (%) / NK-cells / NK-cells (%) / Stimulation index, LPS / Stimulation index, PHA: cancer patients
Description: Preliminary studies were conducted to characterize the immunomodulatory properties of Bestim in human subjects. The protocol for the human subjects studies were reviewed and approved by a Hospital Committee (Moscow Hospital N-24) and informed consent was obtained from all subjects. All 62 patients received by intramuscular injection 0.1 mg of Bestim dissolved in 1.5 to 2.0 ml of sterile saline, one injection per day for 5 days. Patients participating in the clinical trials were from 2 groups:
The first group consisted of 34 patients with disseminated cancer (29 with colon cancer, 2 with primary brain gliomas, 2 with stage III gastric cancer, 1 with stage IIIb breast cancer). These patients received Bestim therapy after standard anticancer therapy which included surgical treatment and chemotherapy with 5-fluorouracil. It should be noted here that the goal of Bestim therapy in these patients was not to treat the tumor but to correct the immunodeficiency that accompanied this disease and which occurs as a consequence of anticancer therapy. Placebo (saline injections) were administered to 14 subjects.
Laboratory measurements (data in Table 8 to 10) were performed one day before and compared to values obtained three days after injection of Bestim.

[6] = tested on: dogs; experiment: Acute toxicity, single intramuscular dose, dogs; assay type: in vivo; settings: single 500.0 mg/kg intramuscular, 14 days
Description: as §1, §2, §3

[7] = tested on: patient after surgical removal of thymus gland; experiment: Case History 3: immunodeficiency caused by surgical removal of the thymus (Patient C); assay type: in vivo, human
Description: Patient C was in the clinic for immunodeficiency caused by surgical removal of the thymus gland. Bestim was administered in the standard 5 daily intramuscular dose of 0.1 mg.

[8] = tested on: mice; experiment: Pharmacological activity after oral administration to mice; assay type: in vivo; settings: for .THETA.-antigen expression % of cells: bone marrow after 30 days; for IL-2 production: splenocytes after 30 days
Description: Bestim dissolved in saline was given orally, for 5 days, to groups of 5 mice per dose. After 30 days, the quantity of .THETA.-antigen positive cells in bone marrow and IL-2 production by splenocytes were measured (as described in later in methods).

[9] = After Bestim Therapy (5 daily i.m. 0.1 mg)

N[C@@H](CCC(=O)N[C@@H](Cc1c[nH]c2ccccc12)C(=O)O)C(=O)O [Bestim, γ-L-glutamyl-L-tryptophan]
macroscopic and histological examination of organs ([1]; dogs, 1, 10 and 100 mg/kg i.m. daily for 1 and 3 months): no significant changes
local inflammatory reactions at the site of injection ([1]; dogs, repeated i.m. injection): no local inflammatory reactions at the site of injection
deaths [2]: No deaths were observed
general appearance, behavior, body weight, hematological, biochemical and physiological indices, macroscopic and histopathological examination of internal organs [2]: all within normal limits
Lymphocytes ([3]; After Bestim Therapy): 1800 per mm^3
T-Lymphocytes (CD3) ([3]; After Bestim Therapy): 60%
T-helper lymphocytes (CD4) ([3]; After Bestim Therapy): 35%
White blood cells [3, 9]: 6.9 × 10^3 per mm^3
Lymphocytes ([3]; Before Therapy): 200 per mm^3
T-Lymphocytes (CD3) ([3]; Before Therapy): 23%
T-helper lymphocytes (CD4) ([3]; Before Therapy): 14%
White blood cells ([3]; Before Therapy): 5.5 × 10^3 per mm^3
inflammation in the prostate [4]: inflammation in the prostate was ameliorated
patients who subjectively felt better and were improved in the physician's opinion ([5]; 30 out of 34 cancer patients, 0.1 mg i.m. per day for 5 days): 88%
patients with negative changes in immunological parameters ([5]; cancer patients N = 34): 9%
patients with no significant change in immunological parameters ([5]; cancer patients N = 34): 18%
patients with positive changes in immunological parameters ([5]; cancer patients N = 34): 73%
Adhesion (%) ([5]; Bestim After): 47.6 ± 5.7%
B-cells ([5]; Bestim After): 240 ± 90 10^6 cells/L
B-cells (%) ([5]; Bestim After): 7.1 ± 2.2%
Blastransformation, LPS ([5]; Bestim After): 2738 ± 305
Blastransformation, PHA ([5]; Bestim After): 21661 ± 5674
Blastransformation, spontaneous ([5]; Bestim After): 434 ± 73
CD3 ([5]; Bestim After): 1940 ± 234 10^6 cells/L
CD3 (%) ([5]; Bestim After): 70 ± 4%
CD4 ([5]; Bestim After): 923 ± 114 10^6 cells/L
CD4 (%) ([5]; Bestim After): 35 ± 2%
CD4/CD8 ([5]; Bestim After): 1.16 ± 0.09
CD8 ([5]; Bestim After): 757 ± 75 10^6 cells/L
CD8 (%) ([5]; Bestim After): 29 ± 2%
Cationic proteins ([5]; Bestim After): 52.4 ± 3.3 Units
Chemiluminescence, luminol (induced) ([5]; Bestim After): 5294 ± 789
Chemiluminescence, luminol (spontaneous) ([5]; Bestim After): 827 ± 299
IgA ([5]; Bestim After): 4.1 ± 0.7 g/L
IgG ([5]; Bestim After): 14.4 ± 1.0 g/L
IgM ([5]; Bestim After): 2.2 ± 0.4 g/L
Myeloperoxidase activity ([5]; Bestim After): 479 ± 97 Units
NBT reduction test ([5]; Bestim After): 160 ± 21 Units
NK activity (%) ([5]; Bestim After): 28 ± 1.5%
NK-cells ([5]; Bestim After): 267 ± 32 10^6 cells/L
NK-cells (%) ([5]; Bestim After): 12.0 ± 1.7%
Stimulation index, LPS ([5]; Bestim After): 7.4 ± 0.7
Stimulation index, PHA ([5]; Bestim After): 48.9 ± 10.3
Adhesion (%) ([5]; Bestim Before): 49.6 ± 5.9%
B-cells ([5]; Bestim Before): 152 ± 58 10^6 cells/L
B-cells (%) ([5]; Bestim Before): 5.0 ± 1.3%
Blastransformation, LPS ([5]; Bestim Before): 2328 ± 438
Blastransformation, PHA ([5]; Bestim Before): 5998 ± 1745
Blastransformation, spontaneous ([5]; Bestim Before): 373 ± 63
CD3 ([5]; Bestim Before): 1430 ± 183 10^6 cells/L
CD3 (%) ([5]; Bestim Before): 65 ± 4%
CD4 ([5]; Bestim Before): 582 ± 54 10^6 cells/L
CD4 (%) ([5]; Bestim Before): 28 ± 2%
CD4/CD8 ([5]; Bestim Before): 1.04 ± 0.08
CD8 ([5]; Bestim Before): 572 ± 53 10^6 cells/L
CD8 (%) ([5]; Bestim Before): 25 ± 2%
Cationic proteins ([5]; Bestim Before): 49.9 ± 5.9 Units
Chemiluminescence, luminol (induced) ([5]; Bestim Before): 6991 ± 2101
Chemiluminescence, luminol (spontaneous) ([5]; Bestim Before): 475 ± 141
IgA ([5]; Bestim Before): 4.5 ± 0.8 g/L
IgG ([5]; Bestim Before): 14.2 ± 1.0 g/L
IgM ([5]; Bestim Before): 1.9 ± 0.4 g/L
Myeloperoxidase activity ([5]; Bestim Before): 467 ± 87 Units
NBT reduction test ([5]; Bestim Before): 157 ± 19 Units
NK activity (%) ([5]; Bestim Before): 29 ± 1.3%
NK-cells ([5]; Bestim Before): 256 ± 44 10^6 cells/L
NK-cells (%) ([5]; Bestim Before): 13.4 ± 2.3%
Stimulation index, LPS ([5]; Bestim Before): 7.6 ± 0.6
Stimulation index, PHA ([5]; Bestim Before): 15.9 ± 4.5
deaths [6]: No deaths were observed
general appearance, behavior, body weight, hematological, biochemical and physiological indices, macroscopic and histopathological examination of internal organs [6]: all within normal limits
T-Lymphocytes (CD3) ([7]; After Bestim Therapy): 49%
Lymphocytes [7, 9]: 1980 per mm^3
Lymphocytes ([7]; Before Therapy): 1100 per mm^3
T-Lymphocytes (CD3) ([7]; Before Therapy): 10%
activity after oral administration ([8]; animal studies, summary): active after oral administration
.THETA.-antigen expression % of cells ([8]; oral 0.1 μg/kg/day for 5 days): 48 ± 1.9 % of cells
IL-2 production ([8]; oral 0.1 μg/kg/day for 5 days): 43 ± 11.5 Units/ml
.THETA.-antigen expression % of cells ([8]; oral 1 μg/kg/day for 5 days): 48 ± 3.0 % of cells
IL-2 production ([8]; oral 1 μg/kg/day for 5 days): 73 ± 16.3 Units/ml
.THETA.-antigen expression % of cells ([8]; oral 10 μg/kg/day for 5 days): 36 ± 2.3 % of cells
IL-2 production ([8]; oral 10 μg/kg/day for 5 days): 130 ± 11.8 Units/ml
